# Experimental data from US7368424B2, “Acylated nonadepsipeptides” (AiCuris GmbH & Co. KG, priority 2003, dated 2008).
# Where two headings read alike, the source gives them in different places. *1 amine or outer side, *2 acyl side, *3 side chain or, on linkers, in order; H or OH if unused. Where a SMILES comes first, the peptide text is derived from it. Bridges are numbered along the chain shown (N, C = ends). [ ]: non-standard residue; d: D form. ξ: configuration not given here. Phe(3R-OH) = O=C([C@@H](N[*:1])[C@H](O[*:3])c1ccccc1)[*:2]; Phe(3,4-(OMe)2) = COc1ccc(C[C@H](N)C(=O)O)cc1OC; Asn(3S-OH) = NC(=O)[C@@H](O)[C@H](N)C(=O)O; Leu(3R-OH) = CC(C)[C@@H](O)[C@H](N)C(=O)O; d(tBuAla) = CC(C)(C)C[C@@H](N)C(=O)O; Ala(cPr) = N[C@@H](CC1CC1)C(=O)O; tBuAla = CC(C)(C)C[C@H](N)C(=O)O; aThr = C[C@H](O)[C@H](N)C(=O)O; ξIle = CC[C@H](C)C(N)C(=O)O; Ac6c = NC1(C(=O)O)CCCCC1
# Legend:
# [1] = tested on: E. faecium L4001; format: cell-based, Enterococcus faecium
# [2] = tested on: Streptococcus pneumoniae G9a; format: cell-based
# Procedure: (§1) Determination of the Minimum Inhibitory Concentration (MIC):
# (§2) The MIC is determined in the liquid dilution test in accordance with the NCCLS guidelines. Overnight cultures of Staphylococcus aureus 133, Enterococcus faecalis 27159, E. faecium 4147 and Streptococcus pneumoniae G9a are incubated with the desired test substances in a 1:2 dilution series. The MIC determination is carried out with a cell count of 10^5 microbes per ml in Isosensitest medium (Difco, Irvine/USA), with the exception of S. pneumoniae which is tested in BHI broth (Difco, Irvine/USA) with 10% bovine serum with a cell count of 10^6 microbes per ml. The cultures are incubated at 37° C. for 18-24 hours, S. pneumoniae in the presence of 10% CO2.
# (§3) The MIC is defined as the lowest concentration of each substance at which visible bacterial growth no longer occurs. The MIC values are reported in μg/ml.
# [3] = tested on: Staphylococcus aureus 133; format: cell-based
# Procedure: as §1, §2, §3
# [4] = tested on: E. faecalis ICB 27159; format: cell-based, Enterococcus faecalis
# Procedure: as §1, §2, §3
# [5] = Isosensitest medium, 10^5 microbes per ml, 37° C., 18-24 hours
# [6] = BHI broth with 10% bovine serum, 10^6 microbes per ml, 10% CO2, 37° C., 18-24 hours
Structure (SMILES),MIC E. faecium L4001 ([1]; L4001) [µg/mL],MIC S. pneumoniae ([2]; G9a) [µg/mL],MIC S. aureus 133 [3]; 133 [µg/mL],MIC E. faecalis ICB 27159 ([4]; ICB 27159) [µg/mL],"MIC E. faecium L4001 [1, 5] [µg/mL]","MIC S. pneumoniae [2, 6] [µg/mL]","MIC S. aureus 133 [3, 5] [µg/mL]","MIC E. faecalis ICB 27159 [4, 5] [µg/mL]"
"CC[C@H](C)[C@@H]1NC(=O)[C@@H](CCCNC(=N)N)NC(=O)[C@H](CC(C)C)NC(=O)[C@H]([C@H](O)C(C)C)NC(=O)[C@@H](NC(=O)[C@H](CC(C)C)NC(=O)[C@H](N)CCSC)[C@@H](c2ccccc2)OC(=O)[C@H](CO)NC(=O)[C@H]([C@H](O)C(N)=O)NC(=O)CNC(=O)[C@H]([C@H](C)O)NC1=O [Example 24, D-Methionyl-de(1-D-leucyl)lysobactin bistrifluoroacetate] (H-[dM]L[Phe(3R-OH)][Leu(3R-OH)]L[dR]I[aThr]G[Asn(3S-OH)]S; ester 3-C)",1,0.5,0.25,2,,,,
"CC[C@H](C)[C@@H]1NC(=O)[C@@H](CCCNC(=N)N)NC(=O)[C@H](CC(C)C)NC(=O)[C@H]([C@H](O)C(C)C)NC(=O)[C@@H](NC(=O)[C@H](CC2CC2)NC(=O)[C@H](N)CC(C)C)[C@@H](c2ccccc2)OC(=O)[C@H](CO)NC(=O)[C@H]([C@H](O)C(N)=O)NC(=O)CNC(=O)[C@H]([C@H](C)O)NC1=O.O=C(O)C(F)(F)F.O=C(O)C(F)(F)F [Example 1, D-leucyl-N^1-{(3S,6S,12S,15S,18R,21S,24S,27S,28R)-6-[(1S)-2-amino-1-hydroxy-2-oxoethyl]-18-(3-{[amino(imino)methyl]amino}propyl)-12-[(1S)-1-hydroxyethyl]-3-(hydroxymethyl)-24-[(1R)-1-hydroxy-2-methylpropyl]-21-isobutyl-15-[(1S)-1-methylpropyl]-2,5,8,11,14,17,20,23,26-nonaoxo-28-phenyl-1-oxa-4,7,10,13,16,19,22,25-octaazacyclooctacosan-27-yl}-3-cyclopropyl-L-alaninamide bistrifluoroacetate] (H-[dL][Ala(cPr)][Phe(3R-OH)][Leu(3R-OH)]L[dR]I[aThr]G[Asn(3S-OH)]S; ester 3-C)",0.5,0.125,0.125,0.5,,,,
"CC[C@H](C)C1NC(=O)[C@@H](CCCNC(=N)N)NC(=O)[C@H](CC(C)C)NC(=O)[C@H]([C@H](O)C(C)C)NC(=O)[C@@H](NC(=O)[C@H](CC(C)(C)C)NC(=O)C2(N)CCCCC2)[C@@H](c2ccccc2)OC(=O)[C@H](CO)NC(=O)[C@H]([C@H](O)C(N)=O)NC(=O)CNC(=O)[C@H]([C@H](C)O)NC1=O.O=C(O)C(F)(F)F.O=C(O)C(F)(F)F (stereo partly drawn) [Example 105, N-[(1-Aminocyclohexyl)carbonyl]-(3-tert-butyl-D-alanyl)-de(1-D-leucyl-2-L-leucyl)lysobactin bistri-fluoroacetate] (H-[Ac6c][tBuAla][Phe(3R-OH)][Leu(3R-OH)]L[dR][ξIle][aThr]G[Asn(3S-OH)]S; ester 3-C)",,,,,0.5,0.063,0.5,1
"CC[C@H](C)[C@@H]1NC(=O)[C@@H](CCCNC(=N)N)NC(=O)[C@H](CC(C)C)NC(=O)[C@H]([C@H](O)C(C)C)NC(=O)[C@@H](NC(=O)[C@H](Cc2ccc(OC)c(OC)c2)NC(=O)[C@H](N)CC(C)(C)C)[C@@H](c2ccccc2)OC(=O)[C@H](CO)NC(=O)[C@H]([C@H](O)C(N)=O)NC(=O)CNC(=O)[C@H]([C@H](C)O)NC1=O [Example 86, 3-tert-Butyl-D-alanyl-3-(3,4-dimethoxyphenyl)-L-alanyl-de(1-D-leucyl-2-L-leucyl)lysobactin bistri-fluoroacetate] (H-[d(tBuAla)][Phe(3,4-(OMe)2)][Phe(3R-OH)][Leu(3R-OH)]L[dR]I[aThr]G[Asn(3S-OH)]S; ester 3-C)",,,,,1,0.125,0.25,0.5
